# Measurements from patent US9145399B2, “Substituted bicyclic triazole derivatives as gamma secretase modulators” (Janssen Pharmaceuticals, Inc., priority 2010, dated 2015).
# Assays:
# Aβtotal [1] = assay: In vivo efficacy: Aβtotal in brain of non-transgenic mice after single oral dose (ELISA); design: species or system mouse; conditions: Mus musculus; dose 30 mg/kg oral dosing; soluble brain fraction, animals sacrificed after 4 h; untreated animals (Ctrl) set at 100; read-out: Aβtotal (% vs Ctrl)_Mean
# Excerpt: (§1) To determine whether acute administration of an Aβ42 lowering agent would reduce Aβ42 levels in vivo, non-transgenic rodents, e.g. mice or rats were used. Animals treated with the Aβ42 lowering agent were examined and compared to those untreated or treated with vehicle and brain levels of soluble Aβ42 and total Aβ were quantitated by standard techniques, for example, using ELISA. Treatment periods varied from hours (h) to days and were adjusted based on the results of the Aβ42 lowering once a time course of onset of effect could be established.
# (§2) A typical protocol for measuring Aβ42 lowering in vivo is shown but it is only one of many variations that could be used to optimize the levels of detectable Aβ. For example, Aβ42 lowering compounds were formulated in 20% of Captisol® (a sulfobutyl ether of β-cyclodextrin) in water or 20% hydroxypropyl β cyclodextrin. The Aβ42 lowering agents were administered as a single oral dose or by any acceptable route of administration to overnight fasted animals. After 4 h, the animals were sacrificed and Aβ42 levels were analysed.
# (§3) Blood was collected by decapitation and exsanguinations in EDTA-treated collection tubes. Blood was centrifuged at 1900 g for 10 minutes (min) at 4° C. and the plasma recovered and flash frozen for later analysis. The brain was removed from the cranium and hindbrain. The cerebellum was removed and the left and right hemisphere were separated. The left hemisphere was stored at −18° C. for quantitative analysis of test compound levels. The right hemisphere was rinsed with phosphate-buffered saline (PBS) buffer and immediately frozen on dry ice and stored at −80° C. until homogenization for biochemical assays.
# (§4) Mouse brains from non-transgenic animals were resuspended in 8 volumes of 0.4% DEA (diethylamine)/50 mM NaCl containing protease inhibitors (Roche-11873580001 or 04693159001) per gram of tissue, e.g. for 0.158 g brain, add 1.264 ml of 0.4% DEA. All samples were homogenized in the FastPrep-24 system (MP Biomedicals) using lysing matrix D (MPBio #6913-100) at 6 m/s for 20 seconds. Homogenates were centrifuged at 221.300×g for 50 min. The resulting high speed supernatants were then transferred to fresh eppendorf tubes. Nine parts of supernatant were neutralized with 1 part 0.5 M Tris-HCl pH 6.8 and used to quantify Aβtotal and Aβ42.
# (§5) To quantify the amount of Aβtotal and Aβ42 in the soluble fraction of the brain homogenates, Enzyme-Linked-Immunosorbent-Assays were used. Briefly, the standards (a dilution of synthetic Aβ1-40 and Aβ1-42, Bachem) were prepared in 1.5 ml Eppendorf tube in Ultraculture, with final concentrations ranging from 10000 to 0.3 pg/ml. The samples and standards were co-incubated with HRPO-labelled N-terminal antibody for Aβ42 detection and with the biotinylated mid-domain antibody 4G8 for Aβtotal detection. 50 μl of conjugate/sample or conjugate/standards mixtures were then added to the antibody-coated plate (the capture antibodies selectively recognize the C-terminal end of Aβ42, antibody JRF/cAβ42/26, for Aβ42 detection and the N-terminus of Aβ, antibody JRF/rAβ/2, for Aβtotal detection). The plate was allowed to incubate overnight at 4° C. in order to allow formation of the antibody-amyloid complex. Following this incubation and subsequent wash steps the ELISA for Aβ42 quantification was finished by addition of Quanta Blu fluorogenic peroxidase substrate according to the manufacturer's instructions (Pierce Corp., Rockford, Il). A reading was performed after 10 to 15 min (excitation 320 nm/emission 420 nm).
# For Aβtotal detection, a Streptavidine-Peroxidase-Conjugate was added, followed 60 min later by an additional wash step and addition of Quanta Blu fluorogenic peroxidase substrate according to the manufacturer's instructions (Pierce Corp., Rockford, Ill). A reading was performed after 10 to 15 min (excitation 320 nm/emission 420 nm). […]
# Aβtotal [2] = assay: Screening for γ-secretase-modulating activity in SKNBE2 cells carrying APP 695 wild type: Aβtotal in cell supernatant (Alphalisa); format: cell-based; conditions: overnight incubation
# In short: (§6)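 SKNBE2 cells expressing wild-type APP695 were incubated overnight at 37° C with test compound at several concentrations. Aβ42 and Aβtotal in supernatant were measured by AlphaLISA sandwich immunoassays. IC50 came from 4-parameter non-linear fits of percent of compound-free control versus log concentration.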
# Aβ42 [3] = assay: In vivo efficacy: Aβ42 lowering in brain of non-transgenic mice after single oral dose (ELISA); design: species or system mouse; conditions: Mus musculus; dose 30 mg/kg oral dosing; soluble brain fraction, animals sacrificed after 4 h; untreated animals (Ctrl) set at 100; read-out: Aβ42 (% vs Ctrl) _Mean
# Excerpt: as §1, §2, §3, §4, §5
# In this model at least 20% Aβ42 lowering compared to untreated animals would be advantageous.
# The results are shown in Table 4 (dose 30 mg/kg oral dosing) (value for untreated animals as control (Ctrl) was set at 100): […]
# Aβ42 [4] = assay: Screening for γ-secretase-modulating activity in SKNBE2 cells carrying APP 695 wild type: Aβ42 in cell supernatant (Alphalisa); format: cell-based; conditions: overnight incubation
# In short: as §6
# [5] = Homo sapiens, SKNBE2, SKNBE2 cells carrying APP 695 wild type
SMILES,response vs control in vivo at 30 mg/kg (Aβtotal [1]),melting point,IC50 (Aβtotal [2]; Homo sapiens),response vs control in vivo at 30 mg/kg (Aβ42 [3]),IC50 (Aβ42 [4]; [5]),IC50 (Aβtotal [2]),IC50 (Aβ42 [4]; SKNBE2 cells carrying APP 695 wild type)
"COc1cc(Nc2nc3n(n2)CCC[C@H]3c2ccccc2Cl)ccc1-n1cnc(C)c1 [Compound 29, (8S)-8-(2-chlorophenyl)-5,6,7,8-tetrahydro-N-[3-methoxy-4-(4-methyl-1H-imidazol-1-yl)phenyl]-[1,2,4]triazolo[1,5-a]pyridin-2-amine]",98%,193.2 °C,> 10000 nM,99%,25 nM,–,–
"COc1cc(Nc2nc3n(n2)CCCC3c2ccccc2C(F)(F)F)ccc1-n1cnc(C)c1 (centres unmarked) [Compound 31, 5,6,7,8-tetrahydro-N-[3-methoxy-4-(4-methyl-1H-imidazol-1-yl)phenyl]-8-[2-(trifluoromethyl)phenyl]-[1,2,4]triazolo[1,5-a]pyridin-2-amine]",96%,187.9 °C,5750 nM,83%,13 nM,–,–
"Cc1cc(-c2ccc(Nc3nc4n(n3)CCCC4c3ccccc3Cl)cc2)ccn1 (centres unmarked) [Compound 41, 8-(2-chlorophenyl)-5,6,7,8-tetrahydro-N-[4-(2-methyl-4-pyridinyl)phenyl]-[1,2,4]triazolo[1,5-a]pyridin-2-amine]",102%,227.2 °C,> 10000 nM,54%,28 nM,–,–
COc1cc(Nc2nc3n(n2)CCCC3c2ccccc2Cl)ccc1-c1ccnc(C)c1 (centres unmarked) [Compound 78],103%,169 °C,–,46%,–,> 10000 nM,32 nM
"Cc1cc(-c2ccc(Nc3nc4n(n3)CCCC4c3ccc(F)cc3F)cc2)ccn1 (centres unmarked) [Compound 81, 8-(2,4-difluorophenyl)-5,6,7,8-tetrahydro-N-[4-(2-methyl-4-pyridinyl)phenyl]-[1,2,4]triazolo[1,5-a]pyridin-2-amine]",84%,193.7 °C,> 10000 nM,41%,69 nM,–,–
"COc1cc(Nc2nc3n(n2)CCCC3c2ccc(F)cc2F)ccc1-c1ccnc(C)c1 (centres unmarked) [Compound 82, 8-(2,4-difluorophenyl)-5,6,7,8-tetrahydro-N-[3-methoxy-4-(2-methyl-4-pyridinyl)phenyl]-[1,2,4]triazolo[1,5-a]pyridin-2-amine]",89%,192.7 °C,> 10000 nM,47%,39 nM,–,–
"COc1cc(Nc2nc3n(n2)CCOC3c2ccccc2Cl)ccc1-c1ccnc(C)c1 (centres unmarked) [Compound 87, 8-(2-chlorophenyl)-5,6-dihydro-N-[3-methoxy-4-(2-methyl-4-pyridinyl)phenyl]-8H-[1,2,4]triazolo[5,1-c][1,4]oxazin-2-amine]",89%,181.3 °C,> 10000 nM,48%,35 nM,–,–
"Cc1cc(-c2ccc(Nc3nc4n(n3)CCCC4c3ccc(F)cc3C)cc2)ccn1 (centres unmarked) [Compound 90, 8-(4-fluoro-2-methylphenyl)-5,6,7,8-tetrahydro-N-[4-(2-methyl-4-pyridinyl)phenyl]-[1,2,4]triazolo[1,5-a]pyridin-2-amine]",83%,153.9 °C,> 10000 nM,38%,56 nM,–,–
"COc1cc(Nc2nc3n(n2)CCCC3c2ccc(F)cc2C)ccc1-c1ccnc(C)c1 (centres unmarked) [Compound 91, 8-(4-fluoro-2-methylphenyl)-5,6,7,8-tetrahydro-N-[3-methoxy-4-(2-methyl-4-pyridinyl)phenyl]-[1,2,4]triazolo[1,5-a]pyridin-2-amine]",92%,161.4 °C,8510 nM,51%,25 nM,–,–
"COc1cc(F)cc(C2CCCn3nc(Nc4ccc(-c5ccnc(C)c5)cc4)nc32)c1 (centres unmarked) [Compound 185, 8-(3-fluoro-5-methoxyphenyl)-5,6,7,8-tetrahydro-N-[4-(2-methyl-4-pyridinyl)phenyl]-[1,2,4]triazolo[1,5-a]pyridin-2-amine]",96%,175.1 °C,> 10000 nM,52%,28 nM,–,–
